Where two headings read alike, the source gives them in different places.
Tests used:
BRD4 = biological target: T1, BRD4 (Homo sapiens, UniProt O60885); assay: Protein degradation activity, Western blotting of BRD4 in MCF-7 cells; assay type: cell-based
T1 construct: endogenous in cells; host or cells: MCF-7
Experimental: Cell treatment: MCF-7 cells in the logarithmic growth phase were taken for the experiment. Cells were inoculated in six-well plates at a density of 5.0×10^5 cells/per well and incubated at 37° C. for 24 hours. […]
Whole cell protein extraction: After completion of drug treatment, the culture medium was discarded, and the cells were washed 3 times with pre-cooled PBS. Cells were scraped off using a cell scraper, and the resulting solution was carefully aspirated and centrifuged at 300 g for 5 min at 4° C. to obtain cells, which were washed with PBS, resuspended, and centrifuged under the same conditions.
Cell lysis: Cells were washed with pre-cooled PBS and lysed in pre-cooled lysis buffer (containing 1% protease and phosphatase inhibitor) for 30 min, and cells were vigorously vortexed several times during lysis. After lysis was completed, the cells were centrifuged at 11,000 g for 15 min at 4° C., and the supernatant was collected as whole cell protein.
Protein denaturation: protein concentration was measured by Bradford assay. Proteins were diluted using 4× Protein Sampling Buffer. Subsequently, the proteins were denatured by heating in a metal bath at 100° C. for 15 min.
Protein Immunoblotting Assay (Western Blotting, WB) was Performed to Quantify BRD4 Protein:
1) Protein electrophoresis: proteins were separated in 4-12% or 4-20% Bis-Tris SDS-PAGE gels. The appropriate volume of the above cell whole protein extract was added to the lanes of the above SDS-PAGE gel. Turn on the power and electrophoresis at 120 V for 15 minutes, then adjust the voltage to 180 V and continue electrophoresis until the loading buffer reaches the lowest end of the gel.
(2) Membrane transfer: After electrophoresis, remove the gel, cut a PVDF membrane […] of the appropriate size and activate the membrane with anhydrous methanol, and install the membrane transfer device in the following order from the negative pole to the positive pole: sponge cushion, gel, PVDF membrane, sponge cushion. After installing the membrane transfer device, place it in the corresponding membrane transfer tank, check the liquid level of the solution required for membrane transfer, turn on the power, and complete the membrane transfer after 3 transfer cycles.
3) Blocking: Place the membrane in QuickBlock™ Western Blocking Buffer and shake it for 20 minutes at room temperature.
4) Primary antibody incubation: After the blocking, discard the blocking solution, add the primary antibody diluted to the appropriate concentration, and gently shake the membrane overnight at 4° C. After completing the incubation, wash the membrane 4 times with 1×TBST for 5 min/time.
(5) Secondary antibody incubation: Add secondary antibody diluted to the appropriate concentration and gently shake the PVDF membrane for 1 hour at room temperature. After incubation, the membrane was washed 4 times with 1×TBST for 5 min/time.
6) Developing: Prepare the ECL developing solution before developing. Lay the PVDF membrane flat on a clean plastic wrap, add the developer solution to the membrane, and let it stand for 1 minute away from light. Subsequently, the PVDF membrane was imaged on a gel system.

MCF-7 cell line = assay: In vivo anti-tumor activity, MCF-7 tumor model; parameters: species or system BALB/c nude mice; settings: for tumor growth (tumor volume): 10 mg/kg subcutaneous injection
Experimental: To investigate the in vivo activation and antitumor activity of the PROTAC compound AS2 and X-ray-responsive PROTAC compound A1, we performed in vivo antitumor activity studies. The MCF-7 cell line was selected, and experiments were performed in BALB/c nude mice. Experimental animals: BALB/c nude mice (female; 6-8 weeks old) were all purchased from Beijing Vital River Laboratory Animal Technology Co., Ltd and housed in pathogen-free conditions with standard temperature and humidity at the Laboratory Animal Resources Center of Tsinghua University. All animal experiments were approved by the Animal Ethics Committee of Tsinghua University. Tumor model establishment: MCF-7 cells in logarithmic growth phase were taken, and 0.25% trypsin was added to digest the cells after washing the cells for 3 times with pre-cooled PBS buffer. The digested cells were centrifuged at 1000 rpm/min for 5 min, the precipitate was discarded, and the cells were resuspended with pre-cooled PBS and carefully blown to make a single-cell solution. After the cells were counted by a counter, the cell density was adjusted to 1×10^7 cells/mL, and 10 mL was taken into a centrifuge tube and stored on ice. Before inoculation of cancer cells, nude mice were gently wiped under the skin of the right axilla with a paper towel sprayed with 75% alcohol. A 1 mL disposable syringe was used to aspirate 200 μL of cell suspension, and the air in the needle was removed, and a single subcutaneous injection was carried out by puncturing about 1 cm forward from the needle inlet site. The needle was withdrawn slowly to avoid fluid leakage. Observe the tumor growth status daily. Drug administration: When the tumor volume reached 120 mm^3, the tumor-bearing mice were randomly grouped. Six groups were set up, namely PBS, PROTAC drug AS2, PROTAC prodrug A1, PBS+X-ray irradiation, PROTAC drug AS2+X-ray irradiation, and PROTAC prodrug A1+X-ray irradiation. Each drug was dispersed in the following solution: 1.25% DMSO+20% PEG+5% Tween 80+73.75% dd H2O; administered dose: 10 mg/kg; subcutaneous injection. X-ray irradiation was performed 3 hours after drug injection. The irradiation dose was 5 Gy. Tumor size and body weight were monitored every other day. Tumor volume was calculated using the formula: tumor volume=length×width^2/2. After 16 days of monitoring, mice in each group were euthanized, and tumors and major organs were collected.

MCF-7 cells [1] = assay: In vitro anti-tumor effect, CellTiter 96 viability assay; assay type: cell-based; settings: Homo sapiens, MCF7, light or radiation study
Experimental: Experimental Procedure: MCF-7 cells in the logarithmic growth phase were used for the experiment. The cells were seeded at 5000 cells per well in 96-well plates and incubated for 24 hours at 37° C. The cells were treated with Example compounds A1-D3 for 3 h. Subsequently, the irradiated group was irradiated with 10-30 Gy of X-rays, and the cells were continued to be incubated until 72 h after completion of irradiation. At the end of drug treatment, 20 μL of CellTiter 96° solution was added to each well. The well plates were incubated in an incubator for 2-4 hours, and then the absorbance was measured using a plate reader. Data were analyzed with GraphPad Prism software to obtain the IC50 values of each test compound.

MCF-7 cells [2] = assay: Annexin V/PI double staining for apoptosis detection; assay type: cell-based; settings: FIG. 6
From the text: The surface of normal cells consists of lipids distributed asymmetrically on the inner and outer leaflets of the plasma membrane. One of them, phosphatidylserine (PS), is normally distributed only on the inner leaflet of the plasma membrane, and is therefore exposed only to the cytoplasm. However, when cells undergo apoptosis, PS is exposed on the outer leaflets of the plasma membrane. Annexin V is a phospholipid-binding protein capable of binding to PS. Therefore, fluorescently labeled Annexin V can be used to detect PS exposed to the outer leaflets of early apoptotic cells. By co-staining with propidium iodide (PI), Annexin V-PI can distinguish normal living cells, early apoptotic cells, and late apoptotic cells. Cell treatment: MCF-7 cells in the logarithmic growth phase were taken for the experiment. Cells were inoculated in six-well plates at a density of 5.0×10^5 cells/per well and incubated at 37° C. for 24 hours. Cells were treated with Example PROTAC drug AS2 and PROTAC prodrug A1 for 3 h, followed by X-ray irradiation, and cells continued to be cultured until 48 h after completion of irradiation. Cell collection: Collect the culture medium in a 1.5 mL centrifuge tube for spare. […] After incubation for 15 min at room temperature away from light, fluorescence detection was carried out by flow cytometry.

[3] = X-ray 5 Gy 3 hours after drug injection
[4] = no irradiation, compared with PBS group

Structure (SMILES)	DC50 (BRD4; WB, FIG. 3)	degradation activity on BRD4 (BRD4; tested concentrations 0-300 nM, FIG. 3)	tumor growth (tumor volume) (MCF-7 cell line; [3])	tumor growth (tumor volume) (MCF-7 cell line; [4])	tumor weight at day 16 (MCF-7 cell line; 10 mg/kg subcutaneous, two administrations with radiation therapy, FIG. 9)	IC50 (MCF-7 cells [1]; compound 3 h, then X-rays 10 Gy or 30 Gy, 72 h after irradiation, read-out: Irradiation with 10 Gy or 30 Gy IC50)	IC50 (MCF-7 cells [1]; no irradiation, 72 h incubation, read-out: Radiation-free IC50)	ability to induce apoptosis (MCF-7 cells [2]; X-rays and compound together, 48 h after irradiation)	ability to induce apoptosis (MCF-7 cells [2]; without X-ray irradiation)	BRD4 degradation (BRD4; co-treated with X-ray irradiation, 10 nM prodrug, FIG. 5)	degradation activity on BRD4 with X-ray irradiation (BRD4; co-treated with X-ray irradiation, FIG. 5)	degradation activity on BRD4 prior to activation (BRD4; no irradiation, 0-300 nM, FIG. 4)
Cc1ncsc1-c1ccc([C@H](C)NC(=O)[C@@H]2C[C@@H](O)CN2C(=O)[C@H](NC(=O)COCCOCCOCCNC(=O)C[C@@H]2N=C(c3ccc(Cl)cc3)c3c(sc(C)c3C)-n3c(C)nnc32)C(C)(C)C)cc1 [AS2]	31.2 nM	effectively degraded BRD4	tumor growth was significantly inhibited	poor antitumor effect	essentially no tumor growth	–	–	–	–	–	–	–
Cc1ncsc1-c1ccc([C@H](C)NC(=O)[C@@H]2C[C@@H](OC(=O)OCc3c(F)c(F)c(N=[N+]=[N-])c(F)c3F)CN2C(=O)[C@H](NC(=O)COCCOCCOCCNC(=O)C[C@@H]2N=C(c3ccc(Cl)cc3)c3c(sc(C)c3C)-n3c(C)nnc32)C(C)(C)C)cc1 [Compound A1]	–	–	enhance the efficacy of radiation therapy	failed to inhibit the tumor growth	–	122 nM	1020 nM	significantly elevated early apoptotic and late apoptotic cells	comparable to that of control DMSO	> 50%	significantly degraded	failed to degrade BRD4

From patent US20260199481A1, “PROTEIN DEGRADATION TARGETING CHIMERA COMPOUND, COMPOSITION THEREOF, AND USE THEREOF” (TSINGHUA UNIVERSITY, priority 2022, published 2026)
